According to patent publication US10058419B2, “Oxidation resistant bioprosthetic tissues and preparation thereof” (The Children's Hospital of Philadelphia, priority 2011, dated 2018):

Test system: ROS activity
Assay: Dihydrorhodamine-123 (DHR123) fluorescence measure of oxidation due to ROS, with H2O2 as oxidant
Conditions: DBP titrated in solution against H2O2 in the presence of DHR123 (FIG. 5)
Source text: The ability of DBP to inhibit ROS activity was verified both in solution and when bound to glut-pretreated pericardium, as described above, by monitoring the fluorescence of dihydrorhodamine-123 (DHR123; Molecular Probes Inc., Eugene Oreg.), which is a commonly used measure of oxidation due to ROS. Briefly, the capacity of DBP to reduce ROS activity was proven in this system by titrating DBP in solution against the oxidant hydrogen peroxide (H2O2) in the presence of DHR123.

CC(C)(C)c1cc(CCCN)cc(C(C)(C)C)c1O.Cl [DBP, 4-hydroxy-3,5-di-tert-butylphenylpropylamine hydrochloride]
oxidation signal (DHR123 fluorescence): dose-dependent inhibition of oxidation signal
